Publication PMC2838427 (British journal of haematology, 2009)
Where “and” joins values, the source holds several entries; their conditions need not be identical. Equal entries are not always repeated.

Assays:
[1] = patients with chronic myelogenous leukemia; ref Picard, et al 2007; cited from earlier work
[2] = system: ABCB1 gene expression in PBMCs; settings: human, in vivo
[3] = system: ABCB1 gene expression in tumor biopsy samples; settings: in vivo
[4] = system: histone H3 acetylation in peripheral blood mononuclear cells (PBMCs); settings: human, in vivo
fetal hemoglobin (HbF) = assay: Blood fetal hemoglobin; format: in vivo, patients

Cc1ccc(NC(=O)c2ccc(CN3CCN(C)CC3)cc2)cc1Nc1nccc(-c2cccnc2)n1 [imatinib]
trough plasma threshold associated with response [1]: 1002 ng/mL

C/C=C1\NC(=O)[C@H]2CSSCC/C=C/[C@H](CC(=O)N[C@H](C(C)C)C(=O)N2)OC(=O)[C@H](C(C)C)NC1=O [romidepsin, (E)-(1S,4S,10S,21R)-7-[(Z)-Ethylidene]-4,21-diisopropyl-2-oxa-12,13-dithi a-5,8,20,23-tetraazabicyclo[8,7,6]-tricos-16-ene-3,6,9,22-pentanone]
median fold increase in ABCB1 mRNA expression [2]: 2.74 and 1.78 | patients having ABCB1 levels 2-fold or higher than baseline [2]: 56% and 37% | samples again showing less than 2-fold ABCB1 increase at 24 h [2]: 71% | fold increase in ABCB1 in a biopsy sample, one patient [3]: greater than 30 | fold increase in ABCB1 in biopsy samples, all other values [3]: below 8 | increase in median ABCB1 level on-study to off study [3]: 50% | pre/post sample sets with greater than 50% increase in ABCB1 expression level [3]: Fourteen | pre/post samples with two-fold or greater increase in ABCB1 level [3]: eight | patients with at least a 2-fold increase in global histone acetylation [4]: 73% | patients with fold increase x < 2 in histone acetylation, number (%) [4]: 21 (57%) and 11 (61%) | median time to peak induction of HbF (fetal hemoglobin (HbF); 61 patients): 99 days | range of time to peak induction of HbF (fetal hemoglobin (HbF); 61 patients): 27 to 295 days | HbF fold change, range (fetal hemoglobin (HbF); CR/PR): 1.69–23.00 | patients with fold increase 2 ≤ x < 4 in hemoglobin F, number (%) (fetal hemoglobin (HbF); Final vs baseline, n=49): 9 (18%) | patients with fold increase x < 2 in hemoglobin F, number (%) (fetal hemoglobin (HbF); Final vs baseline, n=49): 20 (41%) | patients with fold increase x ≥ 4 in hemoglobin F, number (%) (fetal hemoglobin (HbF); Final vs baseline, n=49): 20 (41 %) | patients with fold increase 2 ≤ x < 4 in hemoglobin F, number (%) (fetal hemoglobin (HbF); Peak vs baseline, n=52): 7 (13%) | patients with fold increase x < 2 in hemoglobin F, number (%) (fetal hemoglobin (HbF); Peak vs baseline, n=52): 14 (27%) | patients with fold increase x ≥ 4 in hemoglobin F, number (%) (fetal hemoglobin (HbF); Peak vs baseline, n=52): 31 (60%) | HbF fold change, range (fetal hemoglobin (HbF); SD/PD): 0.95–11.50 | patients with > 4-fold rise in HbF levels (fetal hemoglobin (HbF); peak vs baseline): 60% | patients with two-fold or greater induction of fetal hemoglobin (fetal hemoglobin (HbF); peak vs baseline, zero baselines reassigned 0.2%): 73%
